Experimental data taken from PMC12511557, “WEE1 inhibitors synergise with mRNA translation defects via activation of the kinase GCN2” (Nature Communications, 2025).
pEC50: −log10 of the molar value.

Target: T1, GCN2 (Homo sapiens, UniProt Q9P2K8)
T1 construct: gene EIF2AK4; recombinant human GCN2, N-terminal twin StrepII tag, expressed in Sf9 cells
Assay: ADP-Glo kinase assay with purified GCN2 (biphasic: activation EC50 […], inhibition IC50 […]); supported by thermal unfolding (-2.[…] °C shift) and in vitro autophosphorylation
Assay type: biochemical

T1 sequence (Q9P2K8 whole entry): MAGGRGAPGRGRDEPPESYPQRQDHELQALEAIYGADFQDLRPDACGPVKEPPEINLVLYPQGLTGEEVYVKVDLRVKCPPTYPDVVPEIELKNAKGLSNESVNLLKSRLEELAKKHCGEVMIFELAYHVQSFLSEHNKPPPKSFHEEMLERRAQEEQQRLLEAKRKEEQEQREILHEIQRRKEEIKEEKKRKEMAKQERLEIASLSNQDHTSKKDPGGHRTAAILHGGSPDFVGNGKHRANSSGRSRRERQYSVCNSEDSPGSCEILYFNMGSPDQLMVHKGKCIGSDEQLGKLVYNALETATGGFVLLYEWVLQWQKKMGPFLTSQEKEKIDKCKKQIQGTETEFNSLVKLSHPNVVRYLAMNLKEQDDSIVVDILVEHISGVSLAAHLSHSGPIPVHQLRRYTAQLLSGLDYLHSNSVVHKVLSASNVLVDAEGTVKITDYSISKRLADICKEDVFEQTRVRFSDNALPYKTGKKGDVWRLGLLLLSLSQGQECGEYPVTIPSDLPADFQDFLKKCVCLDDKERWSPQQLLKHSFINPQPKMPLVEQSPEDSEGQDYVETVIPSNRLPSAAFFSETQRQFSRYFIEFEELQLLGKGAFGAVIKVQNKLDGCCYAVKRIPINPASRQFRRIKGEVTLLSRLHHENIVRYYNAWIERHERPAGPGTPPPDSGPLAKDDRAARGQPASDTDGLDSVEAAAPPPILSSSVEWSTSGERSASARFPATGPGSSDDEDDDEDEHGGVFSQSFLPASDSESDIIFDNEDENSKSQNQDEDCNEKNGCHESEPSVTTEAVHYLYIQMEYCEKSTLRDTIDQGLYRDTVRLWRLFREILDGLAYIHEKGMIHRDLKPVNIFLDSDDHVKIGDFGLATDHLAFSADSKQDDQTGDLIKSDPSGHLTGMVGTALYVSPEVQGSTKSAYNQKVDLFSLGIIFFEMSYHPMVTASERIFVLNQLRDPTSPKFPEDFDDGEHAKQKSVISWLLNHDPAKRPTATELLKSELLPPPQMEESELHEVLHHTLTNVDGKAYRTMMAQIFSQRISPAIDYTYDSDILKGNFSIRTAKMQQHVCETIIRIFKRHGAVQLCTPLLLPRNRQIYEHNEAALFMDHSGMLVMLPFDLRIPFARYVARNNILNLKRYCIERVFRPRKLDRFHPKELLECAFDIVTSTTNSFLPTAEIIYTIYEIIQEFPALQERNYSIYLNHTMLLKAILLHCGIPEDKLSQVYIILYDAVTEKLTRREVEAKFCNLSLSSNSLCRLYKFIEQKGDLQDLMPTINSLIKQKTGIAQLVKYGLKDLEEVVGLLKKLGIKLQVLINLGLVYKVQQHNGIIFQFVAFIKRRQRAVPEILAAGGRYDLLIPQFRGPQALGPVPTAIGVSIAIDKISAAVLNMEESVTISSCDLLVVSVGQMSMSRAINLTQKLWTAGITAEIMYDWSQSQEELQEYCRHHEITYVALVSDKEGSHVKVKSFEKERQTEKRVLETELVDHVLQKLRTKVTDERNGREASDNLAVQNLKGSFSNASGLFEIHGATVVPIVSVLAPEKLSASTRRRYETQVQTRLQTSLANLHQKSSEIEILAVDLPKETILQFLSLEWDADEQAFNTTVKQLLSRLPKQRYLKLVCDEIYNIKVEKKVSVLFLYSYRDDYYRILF

SMILES: C=CCn1c(=O)c2cnc(Nc3ccc(N4CCN(C)CC4)cc3)nc2n1-c1cccc(C(C)(C)O)n1 [AZD1775]
- pEC50: 7.80
